Experimental data taken from ChEMBL document CHEMBL5058641, “Data for DCP probe TP-050” (2022).

What was measured:
[1] = GPCRScan assay: inhibition of GABA/PBR; parameters: species or system Rattus norvegicus; radioligand conc. used [nm] 0.3 – 2.0, parental cells brain tissue
[2] = target: Tyrosine-protein kinase Lck (Homo sapiens, UniProt P06239); experiment: LCK Eurofins SafetyScreen (Other); parameters: species or system Inhibitor
[3] = target: Sodium channel protein type 5 subunit alpha (Homo sapiens, UniProt Q14524); experiment: NAV1.5 Eurofins SafetyScreen (Other); parameters: species or system Blocker
[4] = target: Glutamate receptor ionotropic, NMDA 1 (Homo sapiens, UniProt Q05586+Q13224); experiment: NMDAR (1A/2B) Eurofins SafetyScreen (Other); parameters: species or system Blocker
[5] = target: Rho-associated protein kinase 1 (Homo sapiens, UniProt Q13464); experiment: ROCK1 Eurofins SafetyScreen (Other); parameters: species or system Inhibitor
[6] = target: Vascular endothelial growth factor receptor 2 (Homo sapiens, UniProt P35968); experiment: VEGFR2 Eurofins SafetyScreen (Other); parameters: species or system Inhibitor
Acetylcholinesterase = Acetylcholinesterase (Homo sapiens, UniProt P22303); experiment: AChE Eurofins SafetyScreen (Other); parameters: species or system Inhibitor
[7] = target: cGMP-inhibited 3',5'-cyclic phosphodiesterase 3A (Homo sapiens, UniProt Q14432); experiment: PDE3A Eurofins SafetyScreen (Other); parameters: species or system Inhibitor
[8] = target: Sodium-dependent noradrenaline transporter (Homo sapiens, UniProt P23975); experiment: NET Eurofins SafetyScreen (Other); parameters: species or system Blocker
[9] = target: T1, Beta-2 adrenergic receptor (Homo sapiens, UniProt P07550); experiment: ADRB2 Eurofins SafetyScan (Receptor)
Vasopressin V1a receptor = Vasopressin V1a receptor (Homo sapiens, UniProt P37288); experiment: AVPR1A Eurofins SafetyScan (Receptor)
[10] = target: Cholecystokinin receptor type A (Homo sapiens, UniProt P32238); experiment: CCKAR Eurofins SafetyScan (Receptor)
Adenosine receptor A2a = Adenosine receptor A2a (Homo sapiens, UniProt P29274); experiment: ADORA2A Eurofins SafetyScan (Receptor)
[11] = target: Beta-1 adrenergic receptor (Homo sapiens, UniProt P08588); experiment: ADRB1 Eurofins SafetyScan (Receptor)
[12] = target: T2, Muscarinic acetylcholine receptor M3 (Homo sapiens, UniProt P20309); experiment: CHRM3 Eurofins SafetyScan (Receptor)
Target sequence in this assay (P20309 whole entry): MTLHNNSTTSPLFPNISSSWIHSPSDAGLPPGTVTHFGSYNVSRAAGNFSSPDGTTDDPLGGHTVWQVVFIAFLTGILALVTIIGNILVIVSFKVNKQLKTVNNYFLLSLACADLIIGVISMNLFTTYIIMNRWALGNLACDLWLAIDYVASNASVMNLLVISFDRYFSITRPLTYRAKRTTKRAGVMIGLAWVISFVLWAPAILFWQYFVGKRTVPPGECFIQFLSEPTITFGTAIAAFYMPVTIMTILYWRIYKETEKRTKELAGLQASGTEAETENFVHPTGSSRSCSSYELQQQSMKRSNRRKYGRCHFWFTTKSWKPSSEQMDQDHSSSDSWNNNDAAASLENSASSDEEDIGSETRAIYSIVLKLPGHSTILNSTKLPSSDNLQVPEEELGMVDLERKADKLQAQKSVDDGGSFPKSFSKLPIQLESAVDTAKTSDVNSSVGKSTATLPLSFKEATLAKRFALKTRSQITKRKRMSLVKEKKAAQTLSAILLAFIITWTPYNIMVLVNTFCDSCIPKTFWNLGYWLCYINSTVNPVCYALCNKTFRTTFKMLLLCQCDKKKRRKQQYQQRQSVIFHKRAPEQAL

Cannabinoid receptor 1 = Cannabinoid receptor 1 (Homo sapiens, UniProt P21554); experiment: CNR1 Eurofins SafetyScan (Receptor)
D(2) dopamine receptor [13] = target: T3, D(2) dopamine receptor (Homo sapiens, UniProt P14416); experiment: DRD2S Eurofins SafetyScan (Receptor)
Histamine H1 receptor = Histamine H1 receptor (Homo sapiens, UniProt P35367); experiment: HRH1 Eurofins SafetyScan (Receptor)
Histamine H2 receptor = Histamine H2 receptor (Homo sapiens, UniProt P25021); experiment: HRH2 Eurofins SafetyScan (Receptor)
[14] = target: 5-hydroxytryptamine receptor 1A (Homo sapiens, UniProt P08908); experiment: HTR1A Eurofins SafetyScan (Receptor)
[15] = target: 5-hydroxytryptamine receptor 1B (Homo sapiens, UniProt P28222); experiment: HTR1B Eurofins SafetyScan (Receptor)
[16] = target: 5-hydroxytryptamine receptor 2A (Homo sapiens, UniProt P28223); experiment: HTR2A Eurofins SafetyScan (Receptor)
Androgen receptor = Androgen receptor (Homo sapiens, UniProt P10275); experiment: AR Eurofins SafetyScan (Receptor)
Glucocorticoid receptor = Glucocorticoid receptor (Homo sapiens, UniProt P04150); experiment: GR Eurofins SafetyScan (Receptor)
[17] = target: 5-hydroxytryptamine receptor 2C (Homo sapiens) (UniProt P28335); conditions: Compound concentration 10.0 uM
[18] = target: 5-hydroxytryptamine receptor 3A (Homo sapiens) (UniProt P46098); conditions: Compound concentration 10.0 uM
[19] = target: 5-hydroxytryptamine receptor 5A (Homo sapiens) (UniProt P47898); conditions: Compound concentration 10.0 uM
[20] = target: 5-hydroxytryptamine receptor 6 (Homo sapiens) (UniProt P50406); conditions: Compound concentration 10.0 uM
D(1A) dopamine receptor = D(1A) dopamine receptor (Homo sapiens, UniProt P21728); conditions: Compound concentration 10.0 uM
D(2) dopamine receptor [21] = target: T3, D(2) dopamine receptor; conditions: Compound concentration 10.0 uM
[22] = target: D(3) dopamine receptor (Homo sapiens) (UniProt P35462); conditions: Compound concentration 10.0 uM
[23] = target: D(4) dopamine receptor (Homo sapiens) (UniProt P21917); conditions: Compound concentration 10.0 uM
[24] = target: D(1B) dopamine receptor (Homo sapiens) (UniProt P21918); conditions: Compound concentration 10.0 uM
[25] = target: Sodium-dependent dopamine transporter (Homo sapiens, UniProt Q01959); conditions: Compound concentration 10.0 uM
[26] = target: Delta-type opioid receptor (Homo sapiens, UniProt P41143); conditions: Compound concentration 10.0 uM
[27] = target: Histamine H4 receptor (Homo sapiens) (UniProt Q9H3N8); conditions: Compound concentration 10.0 uM
[28] = target: Alpha-2A adrenergic receptor (Homo sapiens) (UniProt P08913); conditions: Compound concentration 10.0 uM
[29] = target: Alpha-2B adrenergic receptor (Homo sapiens) (UniProt P18089); conditions: Compound concentration 10.0 uM
[30] = target: Alpha-2C adrenergic receptor (Homo sapiens) (UniProt P18825); conditions: Compound concentration 10.0 uM
[31] = target: T1, Beta-2 adrenergic receptor; conditions: Compound concentration 10.0 uM
[32] = target: Muscarinic acetylcholine receptor M1 (Homo sapiens) (UniProt P11229); conditions: Compound concentration 10.0 uM
[33] = target: T2, Muscarinic acetylcholine receptor M3; conditions: Compound concentration 10.0 uM
Target sequence in this assay (P20309 whole entry, looked up): as the sequence (P20309 whole entry) above

[34] = target: Muscarinic acetylcholine receptor M4 (Homo sapiens) (UniProt P08173); conditions: Compound concentration 10.0 uM
[35] = target: Alpha-1D adrenergic receptor (Homo sapiens) (UniProt P25100); conditions: Compound concentration 10.0 uM
[36] = target: Sigma intracellular receptor 2 (Homo sapiens) (UniProt Q5BJF2); conditions: Compound concentration 10.0 uM
[37] = target: Sigma non-opioid intracellular receptor 1 (Homo sapiens) (UniProt Q99720); conditions: Compound concentration 10.0 uM

T3 sequence (P14416 whole entry): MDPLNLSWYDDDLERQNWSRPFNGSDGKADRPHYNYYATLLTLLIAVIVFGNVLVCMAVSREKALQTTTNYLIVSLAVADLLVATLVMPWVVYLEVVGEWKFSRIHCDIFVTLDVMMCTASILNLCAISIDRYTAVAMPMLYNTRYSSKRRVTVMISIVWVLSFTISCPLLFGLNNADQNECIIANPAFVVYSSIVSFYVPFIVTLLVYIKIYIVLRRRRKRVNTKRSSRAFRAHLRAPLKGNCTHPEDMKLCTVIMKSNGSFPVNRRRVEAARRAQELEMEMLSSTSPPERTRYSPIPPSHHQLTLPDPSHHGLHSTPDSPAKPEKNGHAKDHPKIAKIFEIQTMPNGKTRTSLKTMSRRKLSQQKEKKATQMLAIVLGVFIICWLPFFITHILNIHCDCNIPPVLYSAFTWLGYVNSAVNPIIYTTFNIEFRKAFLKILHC
Sequence of Androgen receptor (P10275 whole entry): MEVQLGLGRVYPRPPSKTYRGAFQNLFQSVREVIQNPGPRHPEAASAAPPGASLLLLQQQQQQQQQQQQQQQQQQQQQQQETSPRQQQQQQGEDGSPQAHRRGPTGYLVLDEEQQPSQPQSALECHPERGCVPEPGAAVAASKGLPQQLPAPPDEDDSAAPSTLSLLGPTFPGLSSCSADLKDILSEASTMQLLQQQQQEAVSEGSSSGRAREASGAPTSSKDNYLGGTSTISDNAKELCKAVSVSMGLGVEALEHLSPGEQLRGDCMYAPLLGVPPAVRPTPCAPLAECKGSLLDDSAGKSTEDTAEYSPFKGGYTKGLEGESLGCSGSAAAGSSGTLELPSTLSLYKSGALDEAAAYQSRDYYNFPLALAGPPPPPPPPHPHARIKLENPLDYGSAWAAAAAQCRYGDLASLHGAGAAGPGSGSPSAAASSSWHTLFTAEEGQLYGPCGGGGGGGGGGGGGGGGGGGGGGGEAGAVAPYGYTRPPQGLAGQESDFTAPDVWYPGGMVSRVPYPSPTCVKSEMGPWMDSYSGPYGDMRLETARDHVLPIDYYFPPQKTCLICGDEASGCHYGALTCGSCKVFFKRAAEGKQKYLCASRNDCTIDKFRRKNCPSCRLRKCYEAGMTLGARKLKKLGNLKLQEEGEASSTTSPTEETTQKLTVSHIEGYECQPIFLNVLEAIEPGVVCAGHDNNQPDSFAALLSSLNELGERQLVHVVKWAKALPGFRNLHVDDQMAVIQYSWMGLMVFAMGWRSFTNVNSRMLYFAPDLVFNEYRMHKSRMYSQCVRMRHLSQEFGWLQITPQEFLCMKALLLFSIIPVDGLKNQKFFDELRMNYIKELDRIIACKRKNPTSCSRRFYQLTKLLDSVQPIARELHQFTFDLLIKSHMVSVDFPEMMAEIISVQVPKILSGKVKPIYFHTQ
Sequence of Vasopressin V1a receptor (P37288 whole entry): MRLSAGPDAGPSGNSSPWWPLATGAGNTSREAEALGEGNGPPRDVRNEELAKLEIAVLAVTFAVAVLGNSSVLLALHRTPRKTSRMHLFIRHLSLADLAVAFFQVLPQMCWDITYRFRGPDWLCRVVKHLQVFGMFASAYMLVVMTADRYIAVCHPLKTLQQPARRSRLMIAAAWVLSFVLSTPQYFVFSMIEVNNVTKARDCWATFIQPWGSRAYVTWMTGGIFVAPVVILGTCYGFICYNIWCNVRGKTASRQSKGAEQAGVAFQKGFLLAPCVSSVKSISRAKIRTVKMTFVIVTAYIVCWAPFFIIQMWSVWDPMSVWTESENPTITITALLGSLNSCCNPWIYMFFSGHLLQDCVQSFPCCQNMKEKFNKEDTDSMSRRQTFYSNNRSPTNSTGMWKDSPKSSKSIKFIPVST
Sequence of Glucocorticoid receptor (P04150 whole entry): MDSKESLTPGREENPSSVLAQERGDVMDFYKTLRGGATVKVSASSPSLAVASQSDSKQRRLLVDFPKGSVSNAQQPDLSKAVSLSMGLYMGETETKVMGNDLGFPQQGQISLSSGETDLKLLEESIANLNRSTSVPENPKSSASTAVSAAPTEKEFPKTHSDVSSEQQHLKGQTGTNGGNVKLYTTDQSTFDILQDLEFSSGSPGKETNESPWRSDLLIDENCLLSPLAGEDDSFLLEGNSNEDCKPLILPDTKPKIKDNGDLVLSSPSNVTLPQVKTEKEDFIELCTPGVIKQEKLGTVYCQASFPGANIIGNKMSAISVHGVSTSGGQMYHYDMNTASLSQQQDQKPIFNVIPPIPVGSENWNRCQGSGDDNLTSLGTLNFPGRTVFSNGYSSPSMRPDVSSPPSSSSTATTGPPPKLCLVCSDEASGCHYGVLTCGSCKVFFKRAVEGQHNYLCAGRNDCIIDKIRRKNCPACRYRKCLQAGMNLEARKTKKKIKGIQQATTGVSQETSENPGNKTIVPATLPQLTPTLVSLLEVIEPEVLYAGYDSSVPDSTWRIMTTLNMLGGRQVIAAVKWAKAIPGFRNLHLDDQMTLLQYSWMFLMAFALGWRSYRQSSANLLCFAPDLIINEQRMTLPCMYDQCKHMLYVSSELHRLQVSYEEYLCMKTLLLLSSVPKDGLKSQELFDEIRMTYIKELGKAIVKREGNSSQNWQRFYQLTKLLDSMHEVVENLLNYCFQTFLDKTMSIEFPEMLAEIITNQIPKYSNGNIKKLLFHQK
Sequence of 5-hydroxytryptamine receptor 2A (P28223 whole entry): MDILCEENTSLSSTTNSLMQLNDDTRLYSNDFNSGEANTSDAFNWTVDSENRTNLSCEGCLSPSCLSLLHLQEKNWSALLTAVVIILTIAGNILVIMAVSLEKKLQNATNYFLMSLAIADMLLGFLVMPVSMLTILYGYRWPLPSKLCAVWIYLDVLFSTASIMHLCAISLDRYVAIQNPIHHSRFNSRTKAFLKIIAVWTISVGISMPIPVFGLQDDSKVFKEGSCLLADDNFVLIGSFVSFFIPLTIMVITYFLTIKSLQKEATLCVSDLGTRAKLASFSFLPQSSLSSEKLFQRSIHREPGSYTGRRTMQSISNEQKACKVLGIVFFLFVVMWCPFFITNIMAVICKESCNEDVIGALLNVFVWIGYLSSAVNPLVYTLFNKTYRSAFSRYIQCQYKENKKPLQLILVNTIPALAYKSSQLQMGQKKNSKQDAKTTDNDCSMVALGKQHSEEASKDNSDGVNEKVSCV
Sequence of Histamine H2 receptor (P25021 whole entry): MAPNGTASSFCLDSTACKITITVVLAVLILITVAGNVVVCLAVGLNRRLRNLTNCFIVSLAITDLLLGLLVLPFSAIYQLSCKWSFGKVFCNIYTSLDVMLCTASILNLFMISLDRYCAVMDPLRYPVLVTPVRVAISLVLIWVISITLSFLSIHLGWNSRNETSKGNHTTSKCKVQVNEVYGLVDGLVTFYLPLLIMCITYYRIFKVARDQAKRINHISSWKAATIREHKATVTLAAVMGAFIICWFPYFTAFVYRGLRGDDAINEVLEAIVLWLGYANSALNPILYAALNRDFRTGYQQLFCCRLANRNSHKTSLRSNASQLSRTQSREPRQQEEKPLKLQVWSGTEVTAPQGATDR
Sequence of Cholecystokinin receptor type A (P32238 whole entry): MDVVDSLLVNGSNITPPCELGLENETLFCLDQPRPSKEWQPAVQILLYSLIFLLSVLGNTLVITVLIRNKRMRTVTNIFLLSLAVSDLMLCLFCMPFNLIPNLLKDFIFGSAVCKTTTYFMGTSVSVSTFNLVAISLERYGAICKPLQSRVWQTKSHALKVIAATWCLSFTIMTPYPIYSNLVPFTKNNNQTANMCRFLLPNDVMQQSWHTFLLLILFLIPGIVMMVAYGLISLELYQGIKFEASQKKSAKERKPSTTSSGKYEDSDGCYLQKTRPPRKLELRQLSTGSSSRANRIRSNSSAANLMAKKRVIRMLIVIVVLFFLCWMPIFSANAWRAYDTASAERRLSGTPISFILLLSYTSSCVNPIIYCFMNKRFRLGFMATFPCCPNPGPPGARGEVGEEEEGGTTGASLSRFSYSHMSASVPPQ
Sequence of Beta-1 adrenergic receptor (P08588 whole entry): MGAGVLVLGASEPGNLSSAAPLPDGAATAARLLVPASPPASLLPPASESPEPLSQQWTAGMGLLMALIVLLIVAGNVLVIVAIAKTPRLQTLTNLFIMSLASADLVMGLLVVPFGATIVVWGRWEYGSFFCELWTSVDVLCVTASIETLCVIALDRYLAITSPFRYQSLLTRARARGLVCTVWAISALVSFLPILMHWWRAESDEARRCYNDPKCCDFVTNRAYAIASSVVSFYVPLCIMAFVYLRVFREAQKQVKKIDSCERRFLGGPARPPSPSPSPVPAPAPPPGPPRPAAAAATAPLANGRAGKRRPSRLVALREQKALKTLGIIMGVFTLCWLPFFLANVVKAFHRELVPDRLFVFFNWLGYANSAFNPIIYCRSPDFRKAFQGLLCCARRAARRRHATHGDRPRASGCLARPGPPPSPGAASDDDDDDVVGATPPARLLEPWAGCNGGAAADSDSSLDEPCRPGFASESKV

Cc1cn([C@H](C)CC#N)c(=O)c2cc(Cn3nc(C(F)F)cc3Cl)nn12
Ki [1]: 0.336 µM
pKi [1]: 6.47
IC50 [2]: > 10 µM
IC50 [3]: > 10 µM
IC50 [4]: > 10 µM
IC50 [5]: > 10 µM
IC50 [6]: > 10 µM
IC50 (Acetylcholinesterase): > 10 µM
IC50 [7]: 7.9 µM
IC50 [8]: > 10 µM
EC50 [9]: > 10 µM
IC50 [9]: > 10 µM
EC50 (Vasopressin V1a receptor): > 10 µM
IC50 (Vasopressin V1a receptor): > 10 µM
EC50 [10]: > 10 µM
IC50 [10]: > 10 µM
EC50 (Adenosine receptor A2a): > 10 µM
IC50 (Adenosine receptor A2a): > 10 µM
EC50 [11]: > 10 µM
IC50 [11]: > 10 µM
EC50 [12]: > 10 µM
IC50 [12]: > 10 µM
EC50 (Cannabinoid receptor 1): > 10 µM
IC50 (Cannabinoid receptor 1): > 10 µM
EC50 (D(2) dopamine receptor [13]): > 10 µM
IC50 (D(2) dopamine receptor [13]): > 10 µM
EC50 (Histamine H1 receptor): > 10 µM
IC50 (Histamine H1 receptor): > 10 µM
EC50 (Histamine H2 receptor): > 10 µM
IC50 (Histamine H2 receptor): > 10 µM
EC50 [14]: > 10 µM
IC50 [14]: > 10 µM
EC50 [15]: > 10 µM
IC50 [15]: > 10 µM
EC50 [16]: > 10 µM
IC50 [16]: > 10 µM
EC50 (Androgen receptor): > 10 µM
IC50 (Androgen receptor): > 10 µM
EC50 (Glucocorticoid receptor): > 10 µM
IC50 (Glucocorticoid receptor): > 10 µM
inhibition [17]: 13.1%
inhibition [18]: 0.11%
inhibition [19]: 7.54%
inhibition [20]: 8.34%
inhibition (D(1A) dopamine receptor): 1.34%
inhibition (D(2) dopamine receptor [21]): 9.18%
inhibition [22]: 33%
inhibition [23]: 48.5%
inhibition [24]: 19.3%
inhibition [25]: 54.8%
inhibition [26]: -4.95%
inhibition [27]: 25.2%
inhibition [28]: 15.9%
inhibition [29]: 6.16%
inhibition [30]: -1.11%
inhibition [31]: -1.62%
inhibition [32]: 12.5%
inhibition [33]: 11.9%
inhibition [34]: 4.14%
inhibition [35]: 10.6%
inhibition [36]: 10.9%
inhibition [37]: 1.48%
